Results taken from the OPERA property sets (Mansouri et al. 2018).

With `O=C(O)COc1ccccc1O` the logP was 0.85.
Work on `CCCOC(=O)C(C(=O)OCCC)=C1SC=CS1` yielded a logP of 3.93.
Work on `CCC1OC(=O)C(C)C(OC2CC(C)(OC)C(O)C(C)O2)C(C)C(OC2OC(C)CC(N(C)C)C2O)C(C)(O)CC(C)C(=O)C(C)C(O)C1C` (centres undefined) yielded a logP of 3.12.
With `c1ccc(SSc2ccccc2)cc1` the logP was 4.41.
Work on `Nc1ccc(S(=O)(=O)Nc2ccnn2-c2ccccc2)cc1` yielded a logP of 1.52.
Molecule `OC12CC3CC(CC(C3)C1)C2` has a logP of 2.14.
Work on `CC(=O)c1ccccc1NCC#N` yielded a logP of 1.58.
Molecule `NCCCCC(=O)O` has a logP of -2.63.
`O=C1CCC(=O)N1c1ccc([N+](=O)[O-])cc1` showed a logP of 0.46.
With `CCCCOC(=O)c1cccnc1` the logP was 2.27.
Work on `CCC(C)C(NCc1ccccc1)C(=O)O` (centres undefined) yielded a logP of -0.27.
Work on `CC(=O)Nc1cccc(C)c1` yielded a logP of 1.68.
`CCC(C)c1ccccc1O` (centres undefined) showed a logP of 3.27.
In the case of `c1ccoc1`, the logP was 1.34.
Work on `c1cnc2c(c1)ccc1cccnc12` yielded a logP of 1.78.
In the case of `Cc1ccc(/C(=C\CN2CCCC2)c2ccccn2)cc1`, the logP was 3.92.
Molecule `CS(=O)(=O)c1cccc([N+](=O)[O-])c1` has a logP of 0.5.
Molecule `CC1OC(C)OC(C)O1` (centres undefined) has a logP of 0.67.
`CNCc1cccnc1` showed a logP of 0.39.
`C=C(C)C(=O)O` gave a logP of 0.93.
Work on `O=c1[nH]c(=O)n([C@H]2C[C@H](O)[C@@H](CO)O2)cc1C(F)(F)F` yielded a logP of -0.46.
`CC(C)c1ccc(O)c(=O)cc1` gave a logP of 1.89.
Work on `NC(=S)NN=Cc1ccccc1` yielded a logP of 1.86.
With `O=C(O)c1cc([N+](=O)[O-])ccc1Cl` the logP was 2.03.
`NS(=O)(=O)c1cccc(S(N)(=O)=O)c1` gave a logP of -0.55.
With `COC(=O)CNC(=O)c1ccc(N)cc1` the logP was -0.23.
`O=C(O)c1cccc([N+](=O)[O-])c1C(=O)O` showed a logP of 0.75.
Molecule `Nc1cc(Cl)cc(Cl)c1` has a logP of 2.9.
With `CN1CCc2cccc3c2[C@H]1Cc1ccc(O)c(O)c1-3` the logP was 2.3.
`COc1c(O)cc2c(c1OC)-c1ccc(SC)c(=O)cc1C(NC(=O)C(F)(F)F)CC2` (centres undefined) gave a logP of 2.61.
For `O=C(O)CCCl`, the logP was 0.41.
With `CC(=O)c1ccc(O)cc1` the logP was 1.35.
`N#Cc1cccc(N)c1` gave a logP of 1.07.
`CN(C)c1ccc(C=C[N+](=O)[O-])cc1` gave a logP of 2.67.
Work on `NC(=O)Cc1cccs1` yielded a logP of 0.33.
Work on `CN1C(=O)CC(=O)NC1=O` yielded a logP of -0.85.
In the case of `COc1ccccc1OCC(=O)NNC(C)C`, the logP was 1.11.
Work on `CC(=O)Oc1cccc2ccccc12` yielded a logP of 2.78.
`O=C(O)COc1ccc(Cl)c([N+](=O)[O-])c1` showed a logP of 1.85.
For `CN(C)C(=O)Nc1ccccc1`, the logP was 0.98.
For `O=C(O)c1cccc(Oc2ccccc2)c1`, the logP was 3.91.
Work on `CCCCOCN(C(=O)CCl)c1c(CC)cccc1CC` yielded a logP of 4.5.
For `CCCCCCCN(C)/N=N/c1ccc(C(N)=O)cc1`, the logP was 4.2.
Molecule `Oc1cnc2ccccc2n1` has a logP of 0.8.
Work on `C1=CCCCC1` yielded a logP of 2.86.
In the case of `CCCCC1(CC)C(=O)NC(=O)NC1=O`, the logP was 1.73.
`NCc1ccncc1` gave a logP of -0.38.
Work on `CCc1ccc(S(N)(=O)=O)cc1` yielded a logP of 1.31.
With `O=NN1CCCC1` the logP was -0.19.
Work on `CC(=O)Nc1ncc([N+](=O)[O-])s1` yielded a logP of 1.3.
`CSc1cccc(OCC(=O)O)c1` gave a logP of 1.9.
Molecule `CNC(=O)Oc1ccc(C#N)cc1` has a logP of 0.95.
In the case of `Cc1cn(C2OC(CO)C(O)C2O)c(=O)nc1N` (centres undefined), the logP was -2.01.
With `Oc1ccc(Cl)c2cccnc12` the logP was 2.88.
With `CCC(=O)O` the logP was 0.33.
`Cc1ccc(O)c([N+](=O)[O-])c1` showed a logP of 2.37.
`COc1ccc(C(c2ccc(OC)cc2)C(F)(F)F)cc1` showed a logP of 4.76.
For `Nc1ccc(Cl)cc1`, the logP was 1.83.
For `NC(Cc1c[nH]c2cc(F)ccc12)C(=O)O` (centres undefined), the logP was -0.78.
`CC(N)(Cc1ccc(O)cc1)C(=O)O` (centres undefined) gave a logP of -1.89.
Molecule `CCCNCC(C)C` has a logP of 2.07.
`CCCCCOc1cc(N)ccc1C(=O)O` showed a logP of 2.38.
Molecule `c1cncc([C@@H]2CCCN2)c1` has a logP of 0.17.
`Cc1nnc(NS(=O)(=O)c2ccc(N)cc2)s1` gave a logP of 0.54.
Work on `CN1C(CCl)Nc2cc(Cl)c(S(N)(=O)=O)cc2S1(=O)=O` (centres undefined) yielded a logP of 1.42.
In the case of `O=C(O)COc1ccc(I)cc1`, the logP was 2.69.
`CC(=O)c1ccc(C)cc1` gave a logP of 2.1.
`NC(=O)OCCC1=C(N2CC2)C(=O)C(Br)=C(N2CC2)C1=O` gave a logP of 0.68.
Work on `CC1=NCCN1CCO` yielded a logP of 0.04.
`N#CNC(=N)N` gave a logP of -1.15.
`C[Se]c1ccccc1` gave a logP of 2.87.
Molecule `CC12CC3CC(C)(C1)CC(N)(C3)C2` has a logP of 3.28.
`CCN(CC)N=Nc1ccc([N+](=O)[O-])cc1` gave a logP of 4.17.
`CC(=O)Nc1ccc2cccnc2c1` showed a logP of 1.55.
`CCCCOC(=O)n1cnc(CSCCNC(=NC#N)NC)c1C` gave a logP of 2.15.
Molecule `CC(=O)Nc1ccc2[nH]c(C)cc2c1` has a logP of 1.21.
With `CCC(C)(C)Cl` the logP was 2.52.
`CC(=O)Oc1ccccc1C#N` gave a logP of 1.33.
With `CCCCC(N)C(=O)O` (centres undefined) the logP was -1.53.
In the case of `Cc1cc2c(cc1C)C(=O)C=CC2=O`, the logP was 2.49.
Molecule `BrCCCBr` has a logP of 2.37.
Work on `COc1ccc(C)cc1N` yielded a logP of 1.74.
With `O=C1CC(=O)NC(=O)N1` the logP was -1.47.
For `O=[N+]([O-])c1cnc2ccccc2c1`, the logP was 1.97.
`Cn1c(N)nc2ccccc21` showed a logP of 0.95.
For `ONc1ccccc1`, the logP was 0.79.
`Cl[C@@H]1CCCC[C@H]1Cl` showed a logP of 3.21.
`N#CC1CC1` gave a logP of 0.68.
Molecule `NS(=O)(=O)c1ccc(SCCO)s1` has a logP of 0.38.
Molecule `CCCCOC(=O)c1ccc(N)cc1` has a logP of 2.87.
For `C/N=C(\N)NC#N`, the logP was -0.77.
Molecule `Cc1ccc(CC(=O)O)cc1` has a logP of 1.86.
`NS(=O)(=O)c1cc2c(cc1Br)NCNS2(=O)=O` showed a logP of 0.08.
For `O=C1OCc2ccccc21`, the logP was 0.8.
`Nc1ccc(-c2ccc(N)c(Cl)c2)cc1Cl` showed a logP of 3.51.
Work on `CC(=O)Nc1cccc2cccnc12` yielded a logP of 1.91.
Molecule `C=CCN1CCc2nc(N)sc2CC1` has a logP of 1.48.
`O=[N+]([O-])c1cc(Cl)c(O)c(Cl)c1Cl` gave a logP of 3.93.
`COC(=O)c1ccc(S(I)=C(N(C)C)N(C)C)cc1` (centres undefined) gave a logP of -0.74.
`Oc1ccc(C(c2ccccc2)c2ccc(O)cc2)cc1` showed a logP of 4.3.
With `O=Cc1ccc([N+](=O)[O-])o1` the logP was 1.01.
For `Nc1ccc(S)cc1`, the logP was 1.31.
`CC[C@H](C)[C@H](N)C(=O)O` showed a logP of -1.72.
Work on `CN(C)C(N(C)C)=S(I)c1cc(Cl)ccc1Cl` (centres undefined) yielded a logP of 0.05.
With `CCCCOCC1CO1` (centres undefined) the logP was 0.63.
In the case of `CCCCOC(=O)c1ccc(S(N)(=O)=O)cc1`, the logP was 2.34.
`O=c1ccc(=O)[nH][nH]1` showed a logP of -0.84.
In the case of `Cc1ccc(Cl)cc1C`, the logP was 3.82.
For `NCCCc1ccccn1`, the logP was 0.49.
For `COP(=O)(OC)Oc1ccc([N+](=O)[O-])cc1`, the logP was 1.33.
`O=C(O)c1ccc2c(c1)OCCOCCOCCOCCOCCO2` showed a logP of -0.28.
Molecule `NCCCCCC(=O)O` has a logP of -2.95.
`O=Cc1ccc2ccccc2n1` showed a logP of 2.14.
For `O=C(O)c1ccc2ccccc2c1`, the logP was 3.28.
`CCCCC(N)Cc1ccccc1` (centres undefined) gave a logP of 3.36.
Work on `CCCCCc1ccccc1` yielded a logP of 4.9.
Work on `O=c1c(O)c(-c2ccc(O)cc2O)oc2cc(O)cc(O)c12` yielded a logP of 1.54.
Molecule `CCCCOCCOCCO` has a logP of 0.56.
`O=C(O)CSCc1ccccc1` gave a logP of 2.1.
Molecule `CC(C)C(=O)NC(N)=O` has a logP of 0.04.
With `COc1ccc(C(N)=O)cc1` the logP was 0.86.
In the case of `O=C(O)COc1cccc([N+](=O)[O-])c1`, the logP was 1.37.
`NS(=O)(=O)c1cccnc1` gave a logP of -0.49.
Work on `CC(C)Nc1nc(NC(C)C)nc(SC(F)F)n1` yielded a logP of 4.25.
Molecule `CC(=O)OCC1=C(C(=O)O)N2C(=O)C(NC(=O)COc3ccccc3)C2SC1` (centres undefined) has a logP of 0.26.
Work on `NC(C(=O)O)c1cccs1` (centres undefined) yielded a logP of -2.05.
Work on `O=C1C=CC(=NBr)C=C1` yielded a logP of 1.12.
Work on `O=C(O)CCCC(=O)O` yielded a logP of -0.29.
`Oc1c(F)c(F)c(F)c(F)c1F` showed a logP of 3.23.
With `CC(C)C[C@H](N)C(=O)O` the logP was -1.52.
Work on `Oc1cc(O)cc(O)c1` yielded a logP of 0.16.
With `O=C(O)COc1ccc2c(c1)CCCC2` the logP was 2.67.
In the case of `O=NN(CC(F)(F)F)CC(F)(F)F`, the logP was 2.15.
In the case of `O=C(CN1CCCCC1)Nc1cccc(I)c1`, the logP was 3.92.
`CC(=O)c1cccc(C(C)=O)c1` gave a logP of 1.43.
`S=C1CCCO1` showed a logP of 0.6.
With `Cc1cnc2ccccc2n1` the logP was 1.61.
Work on `c1nnn[nH]1` yielded a logP of -0.6.
Work on `O=[N+]([O-])c1ccc2[nH]nnc2c1` yielded a logP of 1.95.
Work on `COCC(O)Cn1cnc([N+](=O)[O-])n1` (centres undefined) yielded a logP of -0.49.
For `O=Nc1c(O)ccc2ccccc12`, the logP was 2.28.
`COc1ccccc1NC(C)=O` gave a logP of 0.67.
Work on `FC(F)(F)c1cccc2cccnc12` yielded a logP of 2.5.
With `CC(=O)CF` the logP was -0.39.
Molecule `CCOC(=O)C(=Cc1cccc(Cl)c1)C(C)=O` has a logP of 2.97.
In the case of `N#CCc1ccc([N+](=O)[O-])cc1`, the logP was 1.37.
Work on `OC[C@H]1O[C@@H](Oc2ccccc2)[C@H](O)[C@@H](O)[C@@H]1O` yielded a logP of -0.75.
Work on `Oc1ccc(Cl)c(Cl)c1` yielded a logP of 3.33.
For `CNC(=O)Oc1cc(C)c(Cl)cc1Cl`, the logP was 3.
Work on `c1ccc(-c2ccc3ccccc3n2)cc1` yielded a logP of 3.9.
In the case of `COc1cc(N)c(Cl)cc1C(=O)NC1CCN(Cc2ccccc2)CC1`, the logP was 3.58.
`CC(=O)Oc1cccc(C)c1` gave a logP of 2.09.
`COC1=C(N2CC2)C(=O)C(OC)=C(N2CC2)C1=O` gave a logP of 0.17.
With `O=[N+]([O-])c1ccc2nc(C(F)(F)F)[nH]c2c1` the logP was 2.68.
Molecule `CNC(=O)Oc1cccc(C(C)(C)C)c1` has a logP of 2.93.
With `CC(=O)c1cc2ccccc2nn1` the logP was 1.44.
With `O=[N+]([O-])c1nccn1CC(F)CO` (centres undefined) the logP was -0.38.
In the case of `CCc1cccnc1`, the logP was 1.66.
`NCCc1c[nH]c2ccccc12` showed a logP of 1.55.
Work on `O=c1[nH]c(=O)n([C@H]2C[C@H](O)[C@@H](CO)O2)cc1Br` yielded a logP of -0.29.
For `CC1CCC(=O)CC1`, the logP was 1.38.
With `Nc1cccc2ncccc12` the logP was 1.16.
`O=C(Nc1ccccc1)NC1CC(O)C(CO)OC1O` (centres undefined) gave a logP of -0.61.
With `CC(=O)c1ccccc1Cl` the logP was 2.09.
Molecule `CC(=O)c1ccc(C(C)=O)cc1` has a logP of 1.34.
`Cc1ccc2cccnc2c1` gave a logP of 2.47.
Work on `Cn1cnc([N+](=O)[O-])c1Sc1ncnc2nc[nH]c12` yielded a logP of 0.1.
With `FC(F)(F)Br` the logP was 1.86.
For `CC(C)Oc1ccccc1O`, the logP was 2.09.
For `CCCCC(=O)O[C@]1(C(=O)CO)[C@@H](C)C[C@H]2[C@@H]3CCC4=CC(=O)C=C[C@]4(C)[C@@]3(F)[C@@H](O)C[C@@]21C`, the logP was 3.6.
`CCOP(=S)(OCC)SCSC(C)(C)C` showed a logP of 4.48.
With `Cc1ccc2c(c1)C(=O)C=CC2=O` the logP was 2.1.
With `CNC(=O)c1cccnc1` the logP was 0.
For `COC(F)(F)C(Cl)Cl`, the logP was 2.21.
